In patent US10131652B2, “Pyrimidinyloxy benzene derivatives as herbicides” (E. I. DU PONT DE NEMOURS AND COMPANY, priority 2014, dated 2018):

Legend:
Test in all cases: Test F pre-/postemergence plant response
Assay type in all cases: in vivo
[1] = test system: velvetleaf (Abutilon theophrasti); conditions: Abutilon theophrasti, pre-emergence, scale 0 to 100, read-out: Plant response rating, Velvetleaf
Summary of the method: (§1)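 Visual rating versus untreated controls, 0–100 scale (0 = no effect, 100 = complete control), taken 14–21 d after treatment in greenhouse. Pre: seeds planted in silt loam, soil treated. Post: plants 2–18 cm, 1–4 leaves. Compound formulated in non-phytotoxic solvent plus surfactant.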

[2] = test system: wild poinsettia (Euphorbia heterophylla); conditions: Euphorbia heterophylla, pre-emergence, scale 0 to 100, read-out: Plant response rating, Poinsettia, Wild
Summary of the method: as §1

[3] = test system: johnsongrass (Sorghum halepense); conditions: Sorghum halepense, pre-emergence, scale 0 to 100, read-out: Plant response rating, Johnsongrass
Summary of the method: as §1

corn (Zea mays) = conditions: Zea mays, pre-emergence, scale 0 to 100
Summary of the method: as §1

[4] = test system: yellow nutsedge (Cyperus esculentus); conditions: Cyperus, pre-emergence, scale 0 to 100, read-out: Plant response rating, Nutsedge, Yellow
Summary of the method: as §1

[5] = test system: palmer pigweed (Amaranthus palmeri); conditions: Amaranthus palmeri, pre-emergence, scale 0 to 100, read-out: Plant response rating, Pigweed, Palmer
Summary of the method: as §1

[6] = test system: waterhemp (common waterhemp, Amaranthus rudis); conditions: Amaranthus tuberculatus, pre-emergence, scale 0 to 100, read-out: Plant response rating, Waterhemp
Summary of the method: as §1

[7] = test system: fall panicum (Panicum dichotomiflorum); conditions: Panicum dichotomiflorum, pre-emergence, scale 0 to 100, read-out: Plant response rating, Panicum, Fall
Summary of the method: as §1

[8] = test system: hairy beggarticks (Bidens pilosa); conditions: Bidens pilosa, pre-emergence, scale 0 to 100, read-out: Plant response rating, Beggarticks
Summary of the method: as §1

[9] = test system: goosegrass (Eleusine indica); conditions: Eleusine indica, pre-emergence, scale 0 to 100, read-out: Plant response rating, Goosegrass
Summary of the method: as §1

[10] = test system: ragweed (common ragweed, Ambrosia elatior); conditions: Ambrosia artemisiifolia, pre-emergence, scale 0 to 100, read-out: Plant response rating, Ragweed
Summary of the method: as §1

[11] = test system: green foxtail (Setaria viridis); conditions: Setaria viridis, pre-emergence, Preemergence, scale 0 to 100, read-out: Plant response rating, Foxtail, Green
Summary of the method: as §1

[12] = test system: field bindweed (Convolvulus arvensis); conditions: Convolvulus arvensis, pre-emergence, scale 0 to 100, read-out: Plant response rating, Field Bindweed
Summary of the method: as §1

[13] = test system: arrowleaf sida (Sida rhombifolia); conditions: Sida rhombifolia, pre-emergence, scale 0 to 100, read-out: Plant response rating, Arrowleaf Sida
Summary of the method: as §1

[14] = test system: nightshade (eastern black nightshade, Solanum ptycanthum); conditions: Solanum, pre-emergence, scale 0 to 100, read-out: Plant response rating, Nightshade
Summary of the method: as §1

kochia (Kochia scoparia) = conditions: Bassia scoparia, pre-emergence, Preemergence, scale 0 to 100, read-out: Plant response rating, Kochia
Summary of the method: as §1

Fc1cccc(Oc2ncc(Cl)cn2)c1-c1cc(C(F)(F)F)on1 [Compound 168, 5-chloro-2-[2-[5-(trifluoromethyl)-3-isoxazolyl]-3-fluorophenoxy]pyrimidine]
60%: pest or weed control at 31 g/ha ([12]; 31 g ai/ha Preemergence)
50%: pest or weed control at 62 g/ha ([2]; Preemergence) | pest or weed control at 62 g/ha ([12]; 62 g ai/ha Preemergence)
70%: pest or weed control at 16 g/ha ([11]; 16 g ai/ha) | pest or weed control at 125 g/ha ([12]; 125 g ai/ha Preemergence)
5%: pest or weed control at 16 g/ha ([14]; 16 g ai/ha Preemergence)
75%: pest or weed control at 31 g/ha ([1]; 31 g ai/ha Preemergence)
40%: Corn plant response rating (crop injury, 0 = no effect, 100 = complete kill) at 62 g/ha (corn (Zea mays); 62 g ai/ha Preemergence) | pest or weed control at 16 g/ha ([12]; 16 g ai/ha Preemergence)
35%: pest or weed control at 16 g/ha ([1]; 16 g ai/ha Preemergence) | pest or weed control at 62 g/ha ([3]; Preemergence) | Corn plant response rating (crop injury, 0 = no effect, 100 = complete kill) at 125 g/ha (corn (Zea mays); 125 g ai/ha Preemergence) | pest or weed control at 16 g/ha ([7]; 16 g ai/ha Preemergence) | pest or weed control at 31 g/ha ([10]; 31 g ai/ha Preemergence)
20%: pest or weed control at 125 g/ha ([4]; 125 g ai/ha Preemergence)
90%: pest or weed control at 125 g/ha ([2]; 125 g ai/ha Preemergence)
100%: pest or weed control at 125 g/ha ([1]; 125 g ai/ha Preemergence) | pest or weed control at 62 g/ha ([1]; Preemergence) | pest or weed control at 125 g/ha ([3]; 125 g ai/ha Preemergence) | pest or weed control at 31 g/ha ([5]; 31 g ai/ha Preemergence) | pest or weed control at 125 g/ha ([5]; 125 g ai/ha Preemergence) | pest or weed control at 62 g/ha ([5]; Preemergence) | pest or weed control at 16 g/ha ([6]; 16 g ai/ha Preemergence) | pest or weed control at 31 g/ha ([6]; 31 g ai/ha Preemergence) | pest or weed control at 125 g/ha ([6]; 125 g ai/ha Preemergence) | pest or weed control at 62 g/ha ([6]; Preemergence) | pest or weed control at 125 g/ha ([7]; 125 g ai/ha Preemergence) | pest or weed control at 62 g/ha ([7]; Preemergence) | pest or weed control at 125 g/ha ([9]; 125 g ai/ha Preemergence) | pest or weed control at 31 g/ha ([11]; 31 g ai/ha) | pest or weed control at 125 g/ha ([11]; 125 g ai/ha) | pest or weed control at 62 g/ha [11] | pest or weed control at 31 g/ha ([13]; 31 g ai/ha Preemergence) | pest or weed control at 62 g/ha ([13]; 62 g ai/ha Preemergence) | pest or weed control at 125 g/ha ([13]; 125 g ai/ha Preemergence) | pest or weed control at 31 g/ha (kochia (Kochia scoparia); 31 g ai/ha) | pest or weed control at 125 g/ha (kochia (Kochia scoparia); 125 g ai/ha) | pest or weed control at 62 g/ha (kochia (Kochia scoparia))
65%: pest or weed control at 62 g/ha ([10]; Preemergence)
80%: pest or weed control at 16 g/ha ([9]; 16 g ai/ha Preemergence)
95%: pest or weed control at 31 g/ha ([7]; 31 g ai/ha Preemergence) | pest or weed control at 31 g/ha ([9]; 31 g ai/ha Preemergence) | pest or weed control at 16 g/ha ([13]; 16 g ai/ha Preemergence) | pest or weed control at 16 g/ha (kochia (Kochia scoparia); 16 g ai/ha)
10%: pest or weed control at 16 g/ha ([10]; 16 g ai/ha Preemergence)
30%: pest or weed control at 31 g/ha ([3]; 31 g ai/ha Preemergence)
98%: pest or weed control at 16 g/ha ([5]; 16 g ai/ha Preemergence) | pest or weed control at 62 g/ha ([9]; Preemergence) | pest or weed control at 125 g/ha ([10]; 125 g ai/ha Preemergence) | pest or weed control at 31 g/ha ([14]; 31 g ai/ha Preemergence) | pest or weed control at 125 g/ha ([14]; 125 g ai/ha Preemergence) | pest or weed control at 62 g/ha ([14]; Preemergence)
0%: pest or weed control at 16 g/ha ([2]; 16 g ai/ha Preemergence) | pest or weed control at 31 g/ha ([2]; 31 g ai/ha Preemergence) | pest or weed control at 16 g/ha ([3]; 16 g ai/ha Preemergence) | Corn plant response rating (crop injury, 0 = no effect, 100 = complete kill) at 16 g/ha (corn (Zea mays); 16 g ai/ha Preemergence) | Corn plant response rating (crop injury, 0 = no effect, 100 = complete kill) at 31 g/ha (corn (Zea mays); 31 g ai/ha Preemergence) | pest or weed control at 16 g/ha ([4]; 16 g ai/ha Preemergence) | pest or weed control at 31 g/ha ([4]; 31 g ai/ha Preemergence) | pest or weed control at 62 g/ha ([4]; Preemergence) | pest or weed control at 16 g/ha ([8]; 16 g ai/ha Preemergence) | pest or weed control at 31 g/ha ([8]; 31 g ai/ha Preemergence) | pest or weed control at 62 g/ha ([8]; 62 g ai/ha Preemergence) | pest or weed control at 125 g/ha ([8]; 125 g ai/ha Preemergence)
